Laboratory results taken from patent US20240383891A1, “BENZIMIDAZOLE AND RELATED ANALOGS FOR INHIBITING YAP/TAZ-TEAD” (SpringWorks Therapeutics, Inc., priority 2023, published 2024).

Columns and labels:
Type in all cases: cell-based
[1] = test system: YAP/TAZ-TEAD transcription; test: reporter gene assay for measuring the inhibition of YAP/TAZ-TEAD transcription (TEAD-responsive element luciferase reporter in Hek293T cells); conditions: Homo sapiens, HEK-293T; Hek293T cells transiently transfected with TEAD-responsive element luciferase reporter, 24 hours incubation
Protocol: Example 21: Activity of compounds of the disclosure in a reporter gene assay for measuring the inhibition of YAP/TAZ-TEAD transcription Hek293T cells are cultured in DMEM supplemented with 10% fetal bovine serum, Sodium pyruvate, Sodium bicarbonate, L-glutamine. The cells are harvested and transiently transfected with TEAD-responsive element luciferase reporter. Transfected cells are plated in 384-well plate containing pre-diluted compounds. After 24 hours incubation at 37° C./5% CO2, assay plates were cooled to room temperature and levelled to an equal volume per well, prior to the addition of 25 uL luciferase substrate SteadyLite (Perkin Elmer)/well. The plate was shaken for 10 min at 600 rpm, centrifuged for 1 min at 500 rpm and measured with an Envision reader (PerkinElmer). The amount of relative light units produced by the TEAD reporter is used to calculate the percentage of inhibition. The percent of reporter inhibition was calculated in the presence of a positive control inhibitor (100% inhibition) versus a condition with the presence of the vehicle basal activity of the reporter (0% inhibition). The ability of a test compound to inhibit this activity was determined as: Percentage inhibition=[[…]((RLU determined in the presence of vehicle—RLU determined for sample with test compound present) divided by (RLU determined in the presence of vehicle—RLU determined for sample with positive control inhibitor))] *100.
The activities of example compounds tested are depicted in Table 3. The activity ranges A, B and C refer to IC50 values in the reporter gene assay as follows: “A”: IC50<1 μM; “B”: 1 μM≤IC50 10 μM and “C”: IC50>10 μM; NT=not tested.

NCI-H226 = test: mesothelioma cell line proliferation assay, NCI-H226; conditions: Homo sapiens, 144 h; NCI-H226 mesothelioma cells, 6 days incubation, ATPlite cell viability
Protocol: (§1) Mesothelioma cell lines, NCI-H226 and NCI-H2052 (both sourced from the ATCC cell culture collection) are plated in 96-well plates (Corning® 96 Well White Polystyrene Microplate clear flat bottom, white polystyrene (TC-Treated)), at 1500 cells/well in full medium (RPMI 1640 ATCC modification with L-glutamine, HEPES, Phenol Red, Sodium Pyruvate, High glucose, Low sodium bicarbonate and 10% fetal bovine serum). Cells are incubated overnight at 37° C. in an incubator with 5% CO2. Then compounds, dissolved in DMSO, are added in dose-response. Cells are incubated with compound dilutions for another 6 days at 37° C. in an incubator with 5% CO2. Cell viability is quantitated using the ATPlite kit (Perkin-Elmer) and the luminescence is read-out using an Envision instrument (Perkin-Elmer). The amount of relative light units produced using the ATPlite kit is used to calculate percent of inhibition. The activities of some example compounds are depicted in Table 4. The activity ranges A, B and C refer to EC50 values in the mesothelioma cell line proliferation assay as described as follows: “A”: EC50<1 μM; “B”: 1 μM s […] and “C”: EC50>10 μM; NT: not tested.

NCI-H2052 = test: mesothelioma cell line proliferation assay, NCI-H2052; conditions: Homo sapiens, 144 h; NCI-H2052 mesothelioma cells, 6 days incubation, ATPlite cell viability
Protocol: as §1

O=C(O)/C=C/c1nc(-c2ccc(C(F)(F)F)cc2)c2ccc(C(F)(F)F)cn12 [Cpd. No. 022, (E)-3-(6-(trifluoromethyl)-1-(4-(trifluoromethyl)phenyl)imidazo[1,5-a]pyridin-3-yl)acrylic acid]
< 1000 nM: IC50 [1] | EC50 (NCI-H226) | EC50 (NCI-H2052)

O=c1[nH]nc(-c2nc(-c3ccc(C(F)(F)F)cc3)c3ccccn23)o1 [Cpd. No. 025, 5-(1-(4-(trifluoromethyl)phenyl)imidazo[1,5-a]pyridin-3-yl)-1,3,4-oxadiazol-2(3H)-one]
< 1000 nM: IC50 [1] | EC50 (NCI-H226) | EC50 (NCI-H2052)

C=CC(=O)NCc1nc(C2CCC(F)(F)CC2)c2ccccn12 [Cpd. No. 026, N-((1-(4,4-difluorocyclohexyl)imidazo[1,5-a]pyridin-3-yl)methyl)acrylamide]
< 1000 nM: IC50 [1] | EC50 (NCI-H226) | EC50 (NCI-H2052)

CNS(=O)(=O)/C=C/c1nc(-c2ccc(C(F)(F)F)cc2)c2ccccn12 [Cpd. No. 027, (E)-N-methyl-2-(1-(4-(trifluoromethyl)phenyl)imidazo[1,5-a]pyridin-3-yl)ethene-1-sulfonamide]
< 1000 nM: IC50 [1] | EC50 (NCI-H226) | EC50 (NCI-H2052)
